Source: patent US20190231751A1, “TREATMENT OF FIBROTIC DISORDERS WITH JUN N-TERMINAL KINASE INHIBITORS” (Imago Pharmaceuticals, Inc., priority 2016, published 2019)

Experiments:
Assay type in all cases: biochemical
[1] = molecular target: JNK2 (Homo sapiens, UniProt P45984); experiment: In vitro JNK2 inhibition (Table 1)
Experimental: (§1) In vitro assays for the determination of JNK activities are known in the art and exemplary assay formats are described herein.
(§2) IC50 values in Table 1 were determined using the procedures as described in U.S. Pat. No. 8,450,353.

[2] = molecular target: JNK3 (Homo sapiens, UniProt P53779); experiment: In vitro JNK3 inhibition (Table 1)
Chain of JNK3 (P53779 whole entry, species assumed): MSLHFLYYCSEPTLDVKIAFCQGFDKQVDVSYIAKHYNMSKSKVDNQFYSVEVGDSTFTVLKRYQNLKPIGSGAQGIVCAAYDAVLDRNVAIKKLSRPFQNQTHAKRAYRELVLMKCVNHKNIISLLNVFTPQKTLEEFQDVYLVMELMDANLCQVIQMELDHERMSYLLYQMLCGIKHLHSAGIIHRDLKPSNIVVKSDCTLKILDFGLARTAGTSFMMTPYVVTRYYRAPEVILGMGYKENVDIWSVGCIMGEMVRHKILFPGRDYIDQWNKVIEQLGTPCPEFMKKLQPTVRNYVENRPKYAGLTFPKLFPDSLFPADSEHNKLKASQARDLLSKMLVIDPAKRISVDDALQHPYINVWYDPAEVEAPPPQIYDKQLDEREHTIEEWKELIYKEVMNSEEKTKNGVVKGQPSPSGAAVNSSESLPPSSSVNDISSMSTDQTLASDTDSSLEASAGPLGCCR
Experimental: as §1, §2

[3] = molecular target: JNK1 (Homo sapiens, UniProt P45983); experiment: In vitro JNK1 inhibition (Table 1)
Chain of JNK1 (P45983 whole entry, species assumed): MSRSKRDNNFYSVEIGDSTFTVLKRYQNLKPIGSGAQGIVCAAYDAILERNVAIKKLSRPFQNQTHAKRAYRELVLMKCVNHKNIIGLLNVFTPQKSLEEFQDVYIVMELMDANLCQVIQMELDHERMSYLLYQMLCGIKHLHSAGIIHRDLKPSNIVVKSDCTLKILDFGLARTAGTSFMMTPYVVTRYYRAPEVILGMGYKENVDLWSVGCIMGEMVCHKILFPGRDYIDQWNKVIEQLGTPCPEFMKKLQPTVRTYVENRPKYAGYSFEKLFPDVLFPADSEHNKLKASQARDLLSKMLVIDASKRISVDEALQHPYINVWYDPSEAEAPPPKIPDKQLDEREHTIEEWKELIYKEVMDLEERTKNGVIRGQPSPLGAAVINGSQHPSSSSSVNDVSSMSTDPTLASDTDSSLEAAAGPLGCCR
Experimental: as §1, §2

Chain of JNK2 (P45984 whole entry, species assumed): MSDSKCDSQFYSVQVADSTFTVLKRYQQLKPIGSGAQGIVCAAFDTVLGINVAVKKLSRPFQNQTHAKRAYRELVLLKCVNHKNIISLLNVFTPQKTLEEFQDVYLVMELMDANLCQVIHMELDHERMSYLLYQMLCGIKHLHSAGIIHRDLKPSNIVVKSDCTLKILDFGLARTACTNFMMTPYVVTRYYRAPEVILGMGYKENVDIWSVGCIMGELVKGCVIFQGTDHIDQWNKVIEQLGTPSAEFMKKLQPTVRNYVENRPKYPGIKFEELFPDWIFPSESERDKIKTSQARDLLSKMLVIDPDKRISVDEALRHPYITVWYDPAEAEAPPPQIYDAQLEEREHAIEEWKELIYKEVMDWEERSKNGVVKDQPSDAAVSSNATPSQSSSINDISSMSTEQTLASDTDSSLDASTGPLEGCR

| SMILES | IC50 [1] | IC50 [2] | IC50 [3] |
| --- | --- | --- | --- |
| COc1ccc(CC(=O)Nc2ccsc2-c2nc(C(F)(F)F)n[nH]2)cc1 [2-(4-methoxyphenyl)-N-(2-(3-(trifluoromethyl)-1H-1,2,4-triazol-5-yl)thiophen-3-yl)acetamide] | 10000 to 50000 nM | – | – |
| COc1ccc(CC(=O)Nc2ccsc2-c2nc(C)n[nH]2)cc1 [2-(4-methoxyphenyl)-N-(2-(3-methyl-1H-1,2,4-triazol-5-yl)thiophen-3-yl)acetamide] | 100 to 10000 nM | – | – |
| COc1ccc(CC(=O)Nc2ccsc2-n2cc(C)cn2)cc1 [2-(4-methoxyphenyl)-N-(2-(4-methyl-1H-pyrazol-1-yl)thiophen-3-yl)acetamide] | 10000 to 50000 nM | – | – |
| COc1ccc(CC(=O)Nc2ccsc2-c2ncco2)cc1 [2-(4-methoxyphenyl)-N-(2-(oxazol-2-yl)thiophen-3-yl)acetamide] | 10000 to 50000 nM | – | – |
| COc1ccc(CC(=O)Nc2sccc2-c2nnn(C)n2)cc1 [2-(4-methoxyphenyl)-N-(3-(2-methyl-2H-tetrazol-5-yl)thiophen-2-yl)acetamide] | 10000 to 50000 nM | – | – |
| O=C(Cn1c(=O)ccc2cc(Br)ccc21)Nc1scc(Br)c1-c1nc[nH]n1 [2-(6-bromo-2-oxoquinolin-1(2H)-yl)-N-(4-bromo-3-(1H-1,2,4-triazol-3-yl)thiophen-2-yl)acetamide] | < 100 nM | < 100 nM | < 100 nM |
| O=C(Cn1c(=O)ccc2cc(Br)ccc21)Nc1scc(Cl)c1-c1nc[nH]n1 [2-(6-bromo-2-oxoquinolin-1(2H)-yl)-N-(4-chloro-3-(1H-1,2,4-triazol-3-yl)thiophen-2-yl)acetamide] | < 100 nM | < 100 nM | < 100 nM |
| COc1nc(-c2sccc2NC(=O)Cc2cccc3cnccc23)cs1 [2-(isoquinolin-5-yl)-N-(2-(2-methoxythiazol-4-yl)thiophen-3-yl)acetamide] | 10000 to 50000 nM | – | – |
| Cn1ncnc1-c1ncsc1NC(=O)Cc1cccc2cnccc12 [2-(isoquinolin-5-yl)-N-(4-(1-methyl-1H-1,2,4-triazol-5-yl)thiazol-5-yl)acetamide] | 100 to 10000 nM | – | – |
| O=C(Cn1c(=O)ccc2ncccc21)Nc1scc(Br)c1-c1ncn[nH]1 [IGP002, N-(4-bromo-3-(1H-1,2,4-triazol-5-yl)thiophen-2-yl)-2-(2-oxo-1,5-naphthyridin-1(2H)-yl)acetamide] | < 100 nM | < 100 nM | < 100 nM |
| O=C(Cc1cccc2ccccc12)Nc1ccsc1-c1nnco1 [N-(2-(1,3,4-oxadiazol-2-yl)thiophen-3-yl)-2-(naphthalen-1-yl)acetamide] | 10000 to 50000 nM | – | – |
| O=C(Cc1ccc2c(c1)OCCO2)Nc1ccsc1-c1ncn[nH]1 [N-(2-(1H-1,2,4-triazol-5-yl)thiophen-3-yl)-2-(2,3-dihydrobenzo[b][1,4]dioxin-6-yl)acetamide] | 100 to 10000 nM | – | – |
| O=C(CN1C(=O)CCc2ccccc21)Nc1ccsc1-c1c[nH]cn1 [N-(2-(1H-imidazol-4-yl)thiophen-3-yl)-2-(2-oxo-3,4-dihydroquinolin-1(2H)-yl)acetamide] | 10000 to 50000 nM | – | – |
| O=C(Cc1cccc2cnccc12)Nc1ccsc1-c1csc(Cl)n1 [N-(2-(2-chlorothiazol-4-yl)thiophen-3-yl)-2-(isoquinolin-5-yl)acetamide] | 10000 to 50000 nM | – | – |
| COc1ccc(CC(=O)Nc2ccsc2-c2nc(N)n[nH]2)cc1 [N-(2-(3-amino-1H-1,2,4-triazol-5-yl)thiophen-3-yl)-2-(4-methoxyphenyl)acetamide] | 100 to 10000 nM | – | – |
| Cc1n[nH]c(-c2sccc2NC(=O)Cc2ccc(N3CCCC3=O)cc2)n1 [N-(2-(3-methyl-H-1,2,4-triazol-5-yl)thiophen-3-yl)-2-(4-(2-oxopyrrolidin-1-yl)phenyl)acetamide] | 100 to 10000 nM | – | – |
| COc1ccc(CC(=O)Nc2ccsc2-c2nc(C(C)(C)C)n[nH]2)cc1 [N-(2-(3-tert-butyl-1H-1,2,4-triazol-5-yl)thiophen-3-yl)-2-(4-methoxyphenyl)acetamide] | 10000 to 50000 nM | – | – |
| Cc1nnc(-c2sccc2NC(=O)Cc2cccc3ccccc23)o1 [N-(2-(5-methyl-1,3,4-oxadiazol-2-yl)thiophen-3-yl)-2-(naphthalen-1-yl)acetamide] | 10000 to 50000 nM | – | – |
| COc1ccc(CC(=O)Nc2sccc2-c2nn[nH]n2)cc1 [N-(3-(2H-tetrazol-5-yl)thiophen-2-yl)-2-(4-methoxyphenyl)-acetamide] | 10000 to 50000 nM | – | – |
| Cc1csc(NC(=O)Cc2cccc3cnccc23)c1-c1nc2ccccc2s1 [N-(3-(benzo[d]thiazol-2-yl)-4-methylthiophen-2-yl)-2-(isoquinolin-5-yl)acetamide] | 10000 to 50000 nM | – | – |

| SMILES | IC50 [1] | IC50 [2] | IC50 [3] |
| --- | --- | --- | --- |
| Cn1cnc(-c2c(Br)csc2NC(=O)CN2C(=O)CCc3ncccc32)n1 [N-(4-bromo-3-(1-methyl-1H-1,2,4-triazol-3-yl)thiophen-2-yl)-2-(2-oxo-3,4-dihydro-1,5-naphthyridin-1(2H)-yl)acetamide] | < 100 nM | < 100 nM | < 100 nM |
| O=C(Cc1cccc2ncc(F)cc12)Nc1scc(Br)c1-c1nc[nH]n1 [N-(4-bromo-3-(1H-1,2,4-triazol-3-yl)thiophen-2-yl)-2-(3-fluoroquinolin-5-yl)acetamide] | < 100 nM | < 100 nM | < 100 nM |
| O=C(Cn1c(=O)ccc2cnccc21)Nc1scc(Br)c1-c1ncn[nH]1 [N-(4-bromo-3-(1H-1,2,4-triazol-5-yl)thiophen-2-yl)-2-(2-oxo-1,6-naphthyridin-1(2H)-yl)acetamide] | < 100 nM | < 100 nM | < 100 nM |
| O=C(CN1C(=O)CCc2ncccc21)Nc1scc(Br)c1-c1ncn[nH]1 [N-(4-bromo-3-(1H-1,2,4-triazol-5-yl)thiophen-2-yl)-2-(2-oxo-3,4-dihydro-1,5-naphthyridin-1(2H)-yl)acetamide] | < 100 nM | < 100 nM | < 100 nM |
| O=C(CN1C(=O)CCc2cnccc21)Nc1scc(Br)c1-c1ncn[nH]1 [N-(4-bromo-3-(1H-1,2,4-triazol-5-yl)thiophen-2-yl)-2-(2-oxo-3,4-dihydro-1,6-naphthyridin-1(2H)-yl)acetamide] | < 100 nM | < 100 nM | < 100 nM |
| O=C(CN1C(=O)CCc2ccccc21)Nc1scc(Br)c1-c1ncn[nH]1 [N-(4-bromo-3-(1H-1,2,4-triazol-5-yl)thiophen-2-yl)-2-(2-oxo-3,4-dihydroquinolin-1(2H)-yl)acetamide] | < 100 nM | < 100 nM | < 100 nM |
| O=C(Cn1c(=O)ccc2nc(C(F)(F)F)ccc21)Nc1scc(Br)c1-c1ncn[nH]1 [N-(4-bromo-3-(1H-1,2,4-triazol-5-yl)thiophen-2-yl)-2-(2-oxo-6-(trifluoromethyl)-1,5-naphthyridin-1(2H)-yl)acetamide] | < 100 nM | < 100 nM | < 100 nM |
| O=C(CN1C(=O)CCc2cc(C(F)(F)F)ccc21)Nc1scc(Br)c1-c1ncn[nH]1 [N-(4-bromo-3-(1H-1,2,4-triazol-5-yl)thiophen-2-yl)-2-(2-oxo-6-(trifluoromethyl)-3,4-dihydroquinolin-1(2H)-yl)acetamide] | < 100 nM | < 100 nM | < 100 nM |
| O=C(Cn1c(=O)ccc2cnc(C(F)(F)F)cc21)Nc1scc(Br)c1-c1ncn[nH]1 [N-(4-bromo-3-(1H-1,2,4-triazol-5-yl)thiophen-2-yl)-2-(2-oxo-7-(trifluoromethyl)-1,6-naphthyridin-1(2H)-yl)acetamide] | < 100 nM | < 100 nM | < 100 nM |
| O=C(Cc1ccc(F)c2ncccc12)Nc1scc(Br)c1-c1ncn[nH]1 [N-(4-bromo-3-(1H-1,2,4-triazol-5-yl)thiophen-2-yl)-2-(8-fluoroquinolin-5-yl)acetamide] | – | < 100 nM | < 100 nM |
| O=C(Cc1cccc2ccncc12)Nc1scc(Br)c1-c1ncn[nH]1 [N-(4-bromo-3-(1H-1,2,4-triazol-5-yl)thiophen-2-yl)-2-(isoquinolin-8-yl)acetamide] | – | < 100 nM | < 100 nM |
| O=C(Cc1ccnc2ccccc12)Nc1scc(Br)c1-c1nnc[nH]1 [N-(4-bromo-3-(4H-1,2,4-triazol-3-yl)thiophen-2-yl)-2-(quinolin-4-yl)acetamide] | – | < 100 nM | < 100 nM |
| O=C(CN1C(=O)CCc2ncccc21)Nc1scc(Br)c1-c1nccs1 [N-(4-bromo-3-(thiazol-2-yl)thiophen-2-yl)-2-(2-oxo-3,4-dihydro-1,5-naphthyridin-1(2H)-yl)acetamide] | – | < 100 nM | < 100 nM |
| CN1CCN(CCCn2cnc(-c3c(Cl)csc3NC(=O)Cn3c(=O)ccc4cc(C(F)(F)F)ccc43)n2)CC1 [N-(4-chloro-3-(1-(3-(4-methylpiperazin-1-yl)propyl)-1H-1,2,4-triazol-3-yl)thiophen-2-yl)-2-(2-oxo-6-(trifluoromethyl)quinolin-1(2H)-yl)acetamide] | – | < 100 nM | < 100 nM |
| CCc1n[nH]c(-c2c(Cl)csc2NC(=O)CN2C(=O)CCc3ncccc32)n1 [N-(4-chloro-3-(3-ethyl-1H-1,2,4-triazol-5-yl)thiophen-2-yl)-2-(2-oxo-3,4-dihydro-1,5-naphthyridin-1(2H)-yl)acetamide] | – | < 100 nM | < 100 nM |
| N#Cc1csc(NC(=O)Cc2cccc3ncccc23)c1-c1cnccn1 [N-(4-cyano-3-(pyrazin-2-yl)thiophen-2-yl)-2-(quinolin-5-yl)acetamide] | – | < 100 nM | < 100 nM |
| Cc1csc(NC(=O)Cc2cccc3ncccc23)c1-c1ncn[nH]1 [N-(4-methyl-3-(1H-1,2,4-triazol-5-yl)thiophen-2-yl)-2-(quinolin-5-yl)acetamide] | 100 to 10000 nM | – | – |
| Cc1n[nH]c(-c2c(C)csc2NC(=O)Cc2cccc3ncccc23)n1 [N-(4-methyl-3-(3-methyl-1H-1,2,4-triazol-5-yl)thiophen-2-yl)-2-(quinolin-5-yl)acetamide] | – | < 100 nM | < 100 nM |
| O=C(Cn1c(=O)ccc2cc(C(F)(F)F)ccc21)Nc1sc(Cl)cc1-c1ncn[nH]1 [N-(5-chloro-3-(1H-1,2,4-triazol-5-yl)thiophen-2-yl)-2-(2-oxo-6-(trifluoromethyl)quinolin-1(2H)-yl)acetamide] | 100 to 10000 nM | 100 to 10000 nM | – |
